Patent publication US9051311B2, “Sulfamide sodium channel inhibitors” (AMGEN INC., priority 2012, dated 2015)
Where a name gives a salt, the structure may show the parent alone.

What was measured:
Nav 1.7 [1] = target: T1, Nav 1.7 (Homo sapiens (Human), UniProt Q15858); test: Nav 1.7 IonWorks Quattro (IWQ) in vitro assay, population patch-clamp; type: cell-based; settings: 293 cells stably transfected with Nav 1.7; block at 26th pulse to −20 mV;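 further: cells held at −110 mV for 3 s, then 26 pulses of 150 ms at 5 Hz, leak-corrected peak current, percent block measured before and after compound, 3–8 min exposure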
Description: (§1) Nav 1.7 and Nav 1.5 Ion Works Quattro (IWQ) In Vitro Assays
(§2) 293 cells stably transfected with either Nav 1.7 or with Nav 1.5 were recorded in population patch-clamp mode with the IonWorks® Quattro automated electrophysiology system in accordance with the manufacturer's specifications (Molecular Devices, LLC, Sunnyvale, Calif.). Sodium channel currents were measured in response to a train of depolarizations that induced successively greater inactivation.
(§3) Cells were held at −110 mV for three seconds (Nav 1.7) or half a second (Nav 1.5) from a holding voltage of −15 mV, then put through a series of 26 pulses of 150 msec duration to −20 mV at a frequency of 5 Hz. Cells were then left unclamped for a period of 3 to 8 minutes while a single concentration of test compound was added. Cells were then reclamped and put through the same voltage protocol. Current at the end of the 26th pulse to −20 mV was subtracted from the peak current evoked by the 26th pulse to −20 mV to correct for leak current. Percent block was calculated for each concentration in duplicate, and IC50 curves were fitted to percent block as a function of concentration.

Nav 1.5 = Nav 1.5 (Homo sapiens (Human), UniProt Q14524); test: Nav 1.5 IonWorks Quattro (IWQ) in vitro assay, population patch-clamp; settings: read-out: Nav 1.5 (IWQ) IC50; 293 cells stably transfected with Nav 1.5; block at 26th pulse to −20 mV;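 further: HEK293 cells stably expressing Nav1.5, sodium current at the 26th of 26 pulses to −20 mV (150 ms, 5 Hz) after compound versus before, leak-corrected, 3–8 min exposure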
Description: as §1, §2, §3

Nav 1.7 [2] = target: T1, Nav 1.7; test: Nav 1.7 in vitro PatchExpress (PX) assay, whole cell voltage clamp; type: cell-based; settings: 293 cells stably transfected with human Nav1.7; partially inactivated state (20 to 50% inactivation)

Sequence of Nav 1.5 (Q14524 whole entry): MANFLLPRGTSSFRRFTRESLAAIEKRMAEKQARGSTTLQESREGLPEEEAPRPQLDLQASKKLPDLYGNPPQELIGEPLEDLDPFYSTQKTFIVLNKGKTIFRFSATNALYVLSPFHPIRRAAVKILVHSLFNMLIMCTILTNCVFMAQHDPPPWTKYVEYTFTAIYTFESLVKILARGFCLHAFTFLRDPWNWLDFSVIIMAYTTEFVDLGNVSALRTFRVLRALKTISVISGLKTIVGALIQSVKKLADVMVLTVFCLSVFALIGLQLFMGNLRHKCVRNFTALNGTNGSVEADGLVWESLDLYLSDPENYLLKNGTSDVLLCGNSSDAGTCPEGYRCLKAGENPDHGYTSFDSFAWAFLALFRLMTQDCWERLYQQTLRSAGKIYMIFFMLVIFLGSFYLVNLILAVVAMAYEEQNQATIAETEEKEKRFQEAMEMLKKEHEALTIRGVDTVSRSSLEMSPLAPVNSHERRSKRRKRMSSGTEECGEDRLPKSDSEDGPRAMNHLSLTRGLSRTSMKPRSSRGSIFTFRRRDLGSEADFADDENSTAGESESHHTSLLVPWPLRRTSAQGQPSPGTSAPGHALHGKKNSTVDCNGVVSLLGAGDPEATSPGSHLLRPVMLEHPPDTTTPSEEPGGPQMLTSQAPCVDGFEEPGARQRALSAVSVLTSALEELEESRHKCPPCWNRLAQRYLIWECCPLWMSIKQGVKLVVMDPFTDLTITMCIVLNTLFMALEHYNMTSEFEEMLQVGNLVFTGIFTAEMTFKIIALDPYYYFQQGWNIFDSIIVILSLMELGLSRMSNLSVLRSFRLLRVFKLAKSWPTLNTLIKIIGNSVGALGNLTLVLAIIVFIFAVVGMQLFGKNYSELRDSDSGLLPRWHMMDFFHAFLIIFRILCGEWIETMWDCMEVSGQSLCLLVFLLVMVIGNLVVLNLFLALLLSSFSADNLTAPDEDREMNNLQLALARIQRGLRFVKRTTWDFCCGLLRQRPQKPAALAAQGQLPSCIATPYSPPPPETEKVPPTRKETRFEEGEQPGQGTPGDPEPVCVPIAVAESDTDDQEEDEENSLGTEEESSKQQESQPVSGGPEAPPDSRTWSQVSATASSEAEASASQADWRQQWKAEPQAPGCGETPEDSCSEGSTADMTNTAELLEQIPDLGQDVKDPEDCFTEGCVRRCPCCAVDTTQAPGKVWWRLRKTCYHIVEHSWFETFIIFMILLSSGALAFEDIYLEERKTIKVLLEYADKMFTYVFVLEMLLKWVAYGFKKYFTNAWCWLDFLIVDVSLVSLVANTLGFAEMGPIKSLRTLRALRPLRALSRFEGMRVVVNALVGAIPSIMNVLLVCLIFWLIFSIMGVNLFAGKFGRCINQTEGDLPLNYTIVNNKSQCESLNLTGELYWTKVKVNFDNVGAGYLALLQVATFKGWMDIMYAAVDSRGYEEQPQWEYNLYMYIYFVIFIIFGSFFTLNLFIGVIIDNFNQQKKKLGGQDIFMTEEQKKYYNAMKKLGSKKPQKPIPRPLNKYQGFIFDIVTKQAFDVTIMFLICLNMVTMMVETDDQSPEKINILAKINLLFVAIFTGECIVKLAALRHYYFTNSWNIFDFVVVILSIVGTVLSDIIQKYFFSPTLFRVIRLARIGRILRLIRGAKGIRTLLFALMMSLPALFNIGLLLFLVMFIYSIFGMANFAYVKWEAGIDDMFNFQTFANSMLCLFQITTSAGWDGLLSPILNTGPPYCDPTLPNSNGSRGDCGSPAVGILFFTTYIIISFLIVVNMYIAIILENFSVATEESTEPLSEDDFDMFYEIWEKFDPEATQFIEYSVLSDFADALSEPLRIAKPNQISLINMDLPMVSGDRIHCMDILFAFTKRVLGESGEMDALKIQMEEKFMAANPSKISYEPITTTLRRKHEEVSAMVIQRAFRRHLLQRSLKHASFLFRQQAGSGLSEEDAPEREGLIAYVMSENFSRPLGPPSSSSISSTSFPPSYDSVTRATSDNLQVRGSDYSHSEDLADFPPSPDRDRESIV
T1 sequence (Q15858 whole entry): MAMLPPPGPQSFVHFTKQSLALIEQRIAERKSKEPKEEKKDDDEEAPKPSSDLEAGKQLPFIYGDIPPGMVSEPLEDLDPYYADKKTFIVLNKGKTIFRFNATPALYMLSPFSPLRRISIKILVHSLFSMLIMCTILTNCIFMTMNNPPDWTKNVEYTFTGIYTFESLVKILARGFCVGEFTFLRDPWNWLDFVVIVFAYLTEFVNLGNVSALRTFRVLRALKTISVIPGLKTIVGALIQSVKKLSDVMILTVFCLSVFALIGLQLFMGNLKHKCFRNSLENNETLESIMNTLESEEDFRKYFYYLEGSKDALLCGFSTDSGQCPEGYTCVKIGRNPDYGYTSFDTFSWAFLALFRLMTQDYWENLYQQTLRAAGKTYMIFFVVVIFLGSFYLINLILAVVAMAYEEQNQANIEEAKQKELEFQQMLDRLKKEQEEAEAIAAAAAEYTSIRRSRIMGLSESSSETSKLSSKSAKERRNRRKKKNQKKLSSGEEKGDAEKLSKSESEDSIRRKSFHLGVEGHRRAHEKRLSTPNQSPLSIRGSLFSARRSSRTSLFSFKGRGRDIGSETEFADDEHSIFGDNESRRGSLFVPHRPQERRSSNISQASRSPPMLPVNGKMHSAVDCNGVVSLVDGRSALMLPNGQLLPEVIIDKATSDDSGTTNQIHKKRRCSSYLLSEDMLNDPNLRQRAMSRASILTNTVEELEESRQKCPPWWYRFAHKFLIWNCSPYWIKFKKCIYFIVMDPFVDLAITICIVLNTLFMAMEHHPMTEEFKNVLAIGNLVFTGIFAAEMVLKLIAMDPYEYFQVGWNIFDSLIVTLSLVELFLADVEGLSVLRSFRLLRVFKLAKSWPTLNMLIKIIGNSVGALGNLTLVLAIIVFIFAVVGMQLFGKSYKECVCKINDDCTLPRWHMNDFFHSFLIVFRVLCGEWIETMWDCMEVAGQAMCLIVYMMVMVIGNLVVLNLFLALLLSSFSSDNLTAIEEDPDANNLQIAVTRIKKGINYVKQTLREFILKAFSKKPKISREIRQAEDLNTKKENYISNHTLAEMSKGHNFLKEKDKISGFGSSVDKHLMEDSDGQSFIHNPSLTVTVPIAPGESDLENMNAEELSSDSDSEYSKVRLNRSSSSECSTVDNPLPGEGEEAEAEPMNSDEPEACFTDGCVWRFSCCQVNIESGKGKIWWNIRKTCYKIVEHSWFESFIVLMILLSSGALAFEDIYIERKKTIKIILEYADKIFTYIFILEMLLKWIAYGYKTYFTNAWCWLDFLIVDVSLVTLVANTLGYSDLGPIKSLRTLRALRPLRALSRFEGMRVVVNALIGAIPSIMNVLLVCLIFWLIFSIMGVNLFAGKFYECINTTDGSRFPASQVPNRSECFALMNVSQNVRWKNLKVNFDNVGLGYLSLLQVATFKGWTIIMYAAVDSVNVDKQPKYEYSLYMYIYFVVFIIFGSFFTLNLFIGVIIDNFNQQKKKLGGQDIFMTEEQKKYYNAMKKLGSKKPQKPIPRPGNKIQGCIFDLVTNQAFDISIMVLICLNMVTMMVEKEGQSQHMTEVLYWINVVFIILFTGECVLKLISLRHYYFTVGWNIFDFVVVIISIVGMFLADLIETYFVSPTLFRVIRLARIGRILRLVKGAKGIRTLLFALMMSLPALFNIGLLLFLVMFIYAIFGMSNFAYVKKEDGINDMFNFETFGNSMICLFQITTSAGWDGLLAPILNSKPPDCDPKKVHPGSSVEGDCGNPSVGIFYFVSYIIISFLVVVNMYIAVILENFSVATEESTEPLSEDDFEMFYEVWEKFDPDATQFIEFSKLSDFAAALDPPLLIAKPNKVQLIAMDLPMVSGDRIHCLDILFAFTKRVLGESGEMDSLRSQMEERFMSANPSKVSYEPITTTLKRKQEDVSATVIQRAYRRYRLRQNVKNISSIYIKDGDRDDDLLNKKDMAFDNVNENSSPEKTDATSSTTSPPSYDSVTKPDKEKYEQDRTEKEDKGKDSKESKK

| SMILES | IC50 (Nav 1.7 [1]) [µM] | IC50 (Nav 1.5) [µM] | IC50 (Nav 1.7 [2]) [µM] |
| --- | --- | --- | --- |
| O=S(=O)(Nc1cnccn1)N1CCc2c(cccc2-c2ccc(C(F)(F)F)cc2C2=CCNCC2)C1 [Example 53, N-(Pyrazin-2-yl)-5-(2-(1,2,3,6-tetrahydropyridin-4-yl)-4-(trifluoromethyl)phenyl)-3,4-dihydroisoquinoline-2(1H)-sulfonamide hydrochloride] | 10.5 | > 10 | – |
| O=S(=O)(Nc1ncns1)N1CCc2c(cccc2-c2ccc(Cl)cc2F)C1 [Example 11, 5-(4-Chloro-2-fluorophenyl)-N-(1,2,4-thiadiazol-5-yl)-3,4-dihydroisoquinoline-2(1H)-sulfonamide] | 4.22 | > 10 | 7.66 |
| CC(C)(C)OC(=O)N1CC=C(c2cc(C(F)(F)F)ccc2-c2cccc3c2CCN(S(=O)(=O)Nc2ncns2)C3)CC1 [Example 5, tert-Butyl 4-(2-(2-(N-(1,2,4-thiadiazol-5-yl)sulfamoyl)-1,2,3,4-tetrahydroisoquinolin-5-yl)-5-(trifluoromethyl)phenyl)-5,6-dihydropyridine-1(2H)-carboxylate] | 1.03 | 5.63 | 1.7 |
| O=S(=O)(Nc1ncns1)N1CCc2c(cccc2-c2ccc(C(F)(F)F)cc2C2=CCNCC2)C1 [Example 6, 5-(2-(1,2,3,6-Tetrahydropyridin-4-yl)-4-(trifluoromethyl)phenyl)-N-(1,2,4-thiadiazol-5-yl)-3,4-dihydroisoquinoline-2(1H)-sulfonamide hydrochloride] | 0.0221 | > 10 | 0.03 |
